Measurements as given in patent US20190055235A1, “SUBSTITUTED BICYCLIC COMPOUNDS AS BROMODOMAIN INHIBITORS” (ZENITH EPIGENETICS LTD., priority 2014, published 2019).

Key:
[1] = biological target: T1, Brd4 bromodomain 1 (BRD4(1)) (Homo sapiens, UniProt O60885); test: Inhibition of tetra-acetylated histone H4 binding to Brd4 bromodomain 1 (AlphaScreen); settings: His-tagged BRD4(1) at 20 nM, biotinylated tetra-acetylated histone H4 peptide, 30 min incubation
T1 construct: N-terminally His-tagged bromodomains (BRD4(1) at 20 nM and BRD4(2) at 100 nM); made in house; host or cells: E. coli BL21(DE3)
Description: Proteins were cloned and overexpressed with a N-terminal 6×His tag, then purified by nickel affinity followed by size exclusion chromatography. Briefly, E. coli BL21(DE3) cells were transformed with a recombinant expression vector encoding N-terminally Nickel affinity tagged bromodomains from Brd2, Brd3, Brd4. Cell cultures were incubated at 37° C. with shaking to the appropriate density and induced overnight with IPTG. The supernatant of lysed cells was loaded onto Ni-IDA column for purification. Eluted protein was pooled, concentrated and further purified by size exclusion chromatography. Fractions representing monomeric protein were pooled, concentrated, aliquoted, and frozen at −80° C. for use in subsequent experiments.
Binding of tetra-acetylated histone H4 peptide (Millipore) and BET bromodomains was confirmed by Amplified Luminescent Proximity Homogenous Assay (AlphaScreen). N-terminally His-tagged bromodomains (BRD4(1) at 20 nM and BRD4(2) at 100 nM) and biotinylated tetra-acetylated histone H4 (10-25 nM) were incubated in the presence of nickel chelate acceptor beads and streptavidin donor beads (PerkinAlmer, 6760000K) added to a final concentration of 2 μg/ml under green light in a white 96 well microtiter plate (Greiner). For inhibition assays, serially diluted compounds were added to the reaction mixtures in a 0.1% final concentrations of DMSO. Final buffer concentrations were 50 mM HEPES, 100 mM NaCl and 0.1% BSA buffer, pH 7.4 and optimized to 30 min incubation time. Assay plates were read at 570 nm on a Synergy H4 Plate Reader (Biotek). IC50 values were determined from a dose response curve.

hIL-6 mRNA = test: Inhibition of hIL-6 mRNA transcription in PMA-differentiated, LPS-stimulated U937 cells; format: cell-based; settings: Homo sapiens, U-937; U937 cells differentiated with PMA, 1 h pretreatment, 1 ug/mL LPS, 3 h, real-time PCR; read-out: IL-6 activity
Description: Human leukemic monocyte lymphoma U937 cells (CRL-1593.2) were plated at a density of 3.2×10^4 cells per well in a 96-well plate in 100 μL RPMI-1640 containing 10% FBS and penicillin/streptomycin, and were differentiated into macrophages for 3 days in 60 ng/mL PMA ([…]) at 37° C. in 5% CO2 prior to the addition of compound. The cells were pretreated for 1 h with increasing concentrations of test compound in 0.1% DMSO prior to stimulation with 1 ug/mL lipopolysaccharide from Escherichia coli. Triplicate wells were used for each concentration. The cells were incubated at 37′C, 5% CO2 for 3 h before the cells were harvested. At time of harvest, media was removed and cells were rinsed in 200 μL PBS. Cells were harvested using the mRNA Catcher PLUS kit according to manufacturer's instructions. The eluted mRNA was then used in a one-step quantitative real-time PCR reaction using components of the RNA UltraSense™ One-Step Kit (Life Technologies) together with Applied Biosystems TaqMan® primer-probes for hIL-6 and Cyclophilin. Real-time PCR plates were run on a ViiA™7 real time PCR machine (Applied Biosystems). The data was analyzed, and the Ct values for hIL-6 were normalized to an internal control prior to determining the fold expression of each sample, relative to the control.

hIL-17 mRNA = test: Inhibition of hIL-17 mRNA transcription in OKT3-stimulated human peripheral blood mononuclear cells; format: cell-based; settings: human PBMC, 1 h pretreatment, OKT3 antibody, 6 h, real-time PCR; read-out: IL-17 activity
Description: Human peripheral blood mononuclear cells were plated (2.0×10^5 cells per well) in a 96-well plate in 45 μL OpTimizer T Cell expansion media (Life Technologies) containing 20 ng/ml IL-2 and penicillin/streptomycin. The cells were treated with increasing concentrations of the test compound or DMSO (0.1%), and were incubated at 37° C., 5% CO2 for 1 h before addition of 10× stock OKT3 antibody at 10 ug/ml in media. Triplicate wells were used for each concentration. Cells were incubated at 37° C., 5% CO2 for 6 h before the cells were harvested. At time of harvest, cells were pelleted by centrifugation at 800 rpm for 5 min. Cells were harvested using the mRNA Catcher PLUS kit according to manufacturer's instructions. The eluted mRNA was then used in a one-step quantitative real-time PCR reaction, using components of the RNA UltraSense™ One-Step Kit (Life Technologies) together with Applied Biosystems TaqMan® primer-probes for hIL-17 and Cyclophilin. Real-time PCR plates were run on a ViiA™7 real time PCR machine (Applied Biosystems). The data was analyzed, and the Ct values for hIL-17 were normalized to an internal control prior to determining the fold induction of each unknown sample, relative to the control.

SMILES	IC50 [1]	IC50 (hIL-6 mRNA)	IC50 (hIL-17 mRNA)
CSc1ccc(Cn2c(C)nc3ncc(-c4c(C)noc4C)cc32)cc1 [Example 1, 3,5-Dimethyl-4-(2-methyl-1-(4-(methylthio)benzyl)-1H-imidazo[4,5-b]pyridin-6-yl)isoxazole]	≤ 300 nM	300 to 3000 nM	300 to 3000 nM
COC(=O)c1cccc(Cn2c(C)nc3ncc(-c4c(C)noc4C)cc32)c1 [Example 2, Methyl 3-((6-(3,5-dimethylisoxazol-4-yl)-2-methyl-1H-imidazo[4,5-b]pyridin-1-yl)methyl)benzoate]	≤ 300 nM	300 to 3000 nM	300 to 3000 nM
COC(=O)c1ccc(Cn2c(C)nc3ncc(-c4c(C)noc4C)cc32)cc1 [Example 3, Methyl 4-((6-(3,5-dimethylisoxazol-4-yl)-2-methyl-1H-imidazo[4,5-b]pyridin-1-yl)methyl)benzoate]	≤ 300 nM	300 to 3000 nM	
CSc1cccc(Cn2c(C)nc3ncc(-c4c(C)noc4C)cc32)c1 [Example 4, 3,5-Dimethyl-4-(2-methyl-1-(3-(methylthio)benzyl)-1H-imidazo[4,5-b]pyridin-6-yl)isoxazole]	≤ 300 nM	300 to 3000 nM	3000 to 30000 nM
Cc1noc(C)c1-c1cnc2nc(C)n(Cc3ccc([S+](C)[O-])cc3)c2c1 (centres unmarked) [Example 5, 3,5-Dimethyl-4-(2-methyl-1-(4-(methylsulfinyl)benzyl)-1H-imidazo[4,5-b]pyridin-6-yl)isoxazole]	≤ 300 nM		
Cc1noc(C)c1-c1cnc2nc(C)n(Cc3cccc(C(=O)O)c3)c2c1 [Example 6, 3-((6-(3,5-Dimethylisoxazol-4-yl)-2-methyl-1H-imidazo[4,5-b]pyridin-1-yl)methyl)benzoic acid]	3000 to 30000 nM		
Cc1noc(CO)c1-c1cnc2nc(C)n(Cc3ccccc3)c2c1 [Example 7, (4-(1-Benzyl-2-methyl-1H-imidazo[4,5-b]pyridin-6-yl)-3-methylisoxazol-5-yl)methanol]	≤ 300 nM	300 to 3000 nM	
Cc1nocc1-c1cnc2nc(C)n(Cc3ccccc3)c2c1 [Example 8, 4-(1-Benzyl-2-methyl-1H-imidazo[4,5-b]pyridin-6-yl)-3-methylisoxazole]	≤ 300 nM	300 to 3000 nM	
Cc1noc(C)c1-c1ccc2[nH]nc(CN3CCC(F)(F)CC3)c2c1 [Example 9, 4-(3-((4,4-Difluoropiperidin-1-yl)methyl)-1H-indazol-5-yl)-3,5-dimethylisoxazole]	≤ 300 nM	300 to 3000 nM	300 to 3000 nM
Cc1noc(C)c1-c1ccc2[nH]nc(CN3CCCCC3)c2c1 [Example 10, 3,5-Dimethyl-4-[3-(1-piperidylmethyl)-1H-indazol-5-yl]isoxazole]	≤ 300 nM	300 to 3000 nM	300 to 3000 nM
Cc1noc(C)c1-c1ccc2[nH]nc(CN3CCN(C)CC3)c2c1 [Example 11, 3,5-Dimethyl-4-[3-[(4-methylpiperazin-1-yl)methyl]-1H-indazol-5-yl]isoxazole]	300 to 3000 nM	3000 to 30000 nM	300 to 3000 nM
Cc1noc(C)c1-c1ccc2[nH]nc(CN3CCC(C#N)CC3)c2c1 [Example 12, 1-[[5-(3,5-Dimethylisoxazol-4-yl)-1H-indazol-3-yl]methyl]piperidine-4-carbonitrile]	≤ 300 nM	300 to 3000 nM	
COC1CCN(Cc2n[nH]c3ccc(-c4c(C)noc4C)cc23)CC1 [Example 13, 4-[3-[(4-Methoxy-1-piperidyl)methyl]-1H-indazol-5-yl]-3,5-dimethyl-isoxazole]	300 to 3000 nM	300 to 3000 nM	
Cc1noc(C)c1-c1ccc2[nH]nc(CN3CCOCC3)c2c1 [Example 14, 4-[[5-(3,5-Dimethylisoxazol-4-yl)-1H-indazol-3-yl]methyl]morpholine]	300 to 3000 nM	3000 to 30000 nM	
